Type in all cases: in vivo
For experiment [1], the system named is Echinochloa crus-galli (ECHCG). Description: Example B post-emergence herbicidal activity, glasshouse pot test. The conditions noted are these: 312 h, rate 250 g/ha, evaluated after 13 days, scale 0-100, read-out: Post-emergence activity ECHCG (100=total damage to plant; 0=no damage to plant). On the procedure:
(§1) Seeds of a variety of test species were sown in standard soil in pots. After cultivation for one day (pre-emergence) or after 8 days cultivation (post-emergence) under controlled conditions in a glasshouse (at 24/16° C., day/night; 14 hours light; 65% humidity), the plants were sprayed with an aqueous spray solution derived from the formulation of the technical active ingredient of formula I in acetone/water (50:50) solution containing 0.5% Tween 20 (polyoxyethelyene sorbitan monolaurate, CAS RN 9005-64-5). The test plants were then grown in a glasshouse under controlled conditions in a glasshouse (at 24/16° C., day/night; 14 hours light; 65% humidity) and watered twice daily. After 13 days for pre and post-emergence, the test was evaluated (100=total damage to plant; 0=no damage to plant). Setaria faberi (SETFA), Lolium perenne (LOLPE), Alopecurus myosuroides (ALOMY), Echinochloa crus-galli (ECHCG), and Avena fatua (AVEFA). Post-Emergence Activity

For experiment [2], the system named is Alopecurus myosuroides (ALOMY). Described as above. The settings on record: 312 h, rate 250 g/ha, evaluated after 13 days, scale 0-100, read-out: Post-emergence activity ALOMY (100=total damage to plant; 0=no damage to plant). Here is the method:
as §1

The subject of experiment [3] is Lolium perenne (LOLPE). The experiment is described as above. The conditions noted are these: 312 h, rate 250 g/ha, evaluated after 13 days, scale 0-100, read-out: Post-emergence activity LOLPE (100=total damage to plant; 0=no damage to plant). Here is the method:
as §1

Experiment [4] concerns Avena fatua (AVEFA). The description is as above. The conditions noted are these: 312 h, rate 250 g/ha, evaluated after 13 days, scale 0-100, read-out: Post-emergence activity AVEFA (100=total damage to plant; 0=no damage to plant). Here is the method: as §1
For experiment [5], the system named is Echinochloa crus-galli (ECHCG). Description: Example B pre-emergence herbicidal activity, glasshouse pot test. The conditions noted are these: 312 h, rate 250 g/ha, evaluated after 13 days, scale 0-100, read-out: Pre-emergence activity ECHCG (100=total damage to plant; 0=no damage to plant). On the procedure: as §1, with “Pre-Emergence” for “Post-Emergence”
For experiment [6], the system named is Alopecurus myosuroides (ALOMY). The experiment is described as above. The conditions noted are these: 312 h, rate 250 g/ha, evaluated after 13 days, scale 0-100, read-out: Pre-emergence activity ALOMY (100=total damage to plant; 0=no damage to plant). On the procedure: as §1, with “Pre-Emergence” for “Post-Emergence”
The test system of experiment [7] is Lolium perenne (LOLPE). The description is as above. The conditions noted are these: 312 h, rate 250 g/ha, evaluated after 13 days, scale 0-100, read-out: Pre-emergence activity LOLPE (100=total damage to plant; 0=no damage to plant). Here is the method:
as §1, with “Pre-Emergence” for “Post-Emergence”

The subject of experiment [8] is Avena fatua (AVEFA). The description is as above. The settings on record: 312 h, rate 250 g/ha, evaluated after 13 days, scale 0-100, read-out: Pre-emergence activity AVEFA (100=total damage to plant; 0=no damage to plant). On the procedure: as §1, with “Pre-Emergence” for “Post-Emergence”

For the molecule `CCc1ccc(-c2ccc(Cl)cc2F)cc1C1=C(O)CC(C)(C)CC1=O` [Compound T32], the pest or weed control at 250 g/ha in experiment [1] was determined as 100%; in experiment [2] it was 40%; in the experiment with Lolium perenne (LOLPE) [3], 100%; in the experiment on Avena fatua (AVEFA) [4], 70%; in experiment [5], 80%; in experiment [6] it was 0%. In addition, the figures for the pest or weed control at 250 g/ha with Lolium perenne (LOLPE) [7] and with Avena fatua (AVEFA) [8] were 80% and 30%, respectively.
For the molecule `CCc1ccc(-c2ccc(Cl)c(F)c2)cc1C1=C(O)CCCC1=O` [Compound T56], the pest or weed control at 250 g/ha in experiment [1] worked out at 100%; in experiment [2], 60%; in the experiment with Lolium perenne (LOLPE) [3], 100%; with Avena fatua (AVEFA) [4], 100%; in experiment [5], 100%; in experiment [6], 30%. Further, the pest or weed control at 250 g/ha in the experiment on Lolium perenne (LOLPE) [7] came out at 90%; in the experiment on Avena fatua (AVEFA) [8], 20%.
For the molecule `CCc1ccc(-c2ccc(Cl)c(C(F)(F)F)c2)cc1C1=C(O)C(C)(C)CCC1=O` [Compound T8], the pest or weed control at 250 g/ha was 100% in experiment [1]; 40% in experiment [2]; 80% in the experiment on Lolium perenne (LOLPE) [3]; 30% in the experiment with Avena fatua (AVEFA) [4]; 100% in experiment [5]; 0% in experiment [6]. For the same molecule, the results for the pest or weed control at 250 g/ha in the experiment on Lolium perenne (LOLPE) [7] and in the experiment on Avena fatua (AVEFA) [8] were 90% and 20%, respectively.
As for `CCc1ccc(-c2ccc(C(F)(F)F)cc2)cc1C1=C(O)CC(C)(C)CC1=O` [Compound T34], the pest or weed control at 250 g/ha came to 100% in experiment [1]; 100% in experiment [2]; 100% with Lolium perenne (LOLPE) [3]; 100% with Avena fatua (AVEFA) [4]; 50% in experiment [5]; 20% in experiment [6]. Moreover, the values for the pest or weed control at 250 g/ha with Lolium perenne (LOLPE) [7] and in the experiment with Avena fatua (AVEFA) [8] were 30% and 0%, respectively.
Turning to `CCc1ccc(-c2ccc(Cl)c(F)c2Cl)cc1C1=C(O)CC(C)(C)CC1=O` [Compound T29], the pest or weed control at 250 g/ha in experiment [1] was 100%; in experiment [2], 40%; in the experiment with Lolium perenne (LOLPE) [3] it was 100%; with Avena fatua (AVEFA) [4] it was 30%; in experiment [5], 90%; in experiment [6] it was 40%. Besides, the pest or weed control at 250 g/ha turned out to be 70% in the experiment with Lolium perenne (LOLPE) [7] and 0% in the experiment with Avena fatua (AVEFA) [8].
Regarding `CCc1ccc(-c2c(F)cc(Cl)cc2Cl)cc1C1=C(O)CCCC1=O` [Compound T51], the pest or weed control at 250 g/ha in experiment [1] is 90%; in experiment [2] it was 40%; with Lolium perenne (LOLPE) [3], 90%; in the experiment on Avena fatua (AVEFA) [4] it was 50%; in experiment [5], 80%; in experiment [6] it was 20%. Besides, the pest or weed control at 250 g/ha with Lolium perenne (LOLPE) [7] is 100%; in the experiment with Avena fatua (AVEFA) [8] it was 40%.
`CCc1ccc(-c2ccc(C(F)(F)F)cc2)cc1C1=C(O)CCCC1=O` [Compound T59]: the pest or weed control at 250 g/ha (in experiment [1]; in experiment [2]; in the experiment on Lolium perenne (LOLPE) [3]; with Avena fatua (AVEFA) [4]; in experiment [5]; in experiment [6]) was 100% each time. The pest or weed control at 250 g/ha with Lolium perenne (LOLPE) [7] and in the experiment on Avena fatua (AVEFA) [8] was 100% in each case.
With `CCc1ccc(-c2ccc(Cl)cc2C)cc1C1=C(O)C(C)(C)CCC1=O` [Compound T4, 2-(4′-chloro-4-ethyl-2′-methylbiphen-3-yl)-4,4-dimethylcyclohexane-1,3-dione], the pest or weed control at 250 g/ha is 100% in experiment [1]; 0% in experiment [2]; 50% in the experiment on Lolium perenne (LOLPE) [3]; 0% with Avena fatua (AVEFA) [4]; 90% in experiment [5]; 20% in experiment [6]. Besides, the pest or weed control at 250 g/ha amounted to 40% in the experiment with Lolium perenne (LOLPE) [7] and 0% in the experiment with Avena fatua (AVEFA) [8].
`CCc1ccc(-c2ccc(Cl)s2)cc1C1=C(O)CC(C)(C)CC1=O` [Compound T26]: the pest or weed control at 250 g/ha in experiment [1] was determined as 80%; in experiment [2] it was 30%; with Lolium perenne (LOLPE) [3], 70%; in the experiment on Avena fatua (AVEFA) [4], 0%; in experiment [5] it was 100%; in experiment [6] it was 20%. In addition, the pest or weed control at 250 g/ha was determined as 100% with Lolium perenne (LOLPE) [7] and 0% with Avena fatua (AVEFA) [8].
Regarding `CCc1ccc(-c2ccc(Cl)nc2Cl)cc1C1=C(O)CCCC1=O` [Compound T57], the pest or weed control at 250 g/ha in experiment [1] is 80%; in experiment [2], 50%; with Lolium perenne (LOLPE) [3], 60%; in the experiment on Avena fatua (AVEFA) [4], 40%; in experiment [5], 20%; in experiment [6] it was 0%. Besides, the figures for the pest or weed control at 250 g/ha with Lolium perenne (LOLPE) [7] and in the experiment with Avena fatua (AVEFA) [8] were 10% and 0%, respectively.
`CCc1ccc(-c2ccc(Cl)c(OC)c2)cc1C1=C(O)C(C)(C)CC(C)(C)C1=O` [Compound T66]: the pest or weed control at 250 g/ha in experiment [1] came out at 100%; in experiment [2], 30%; in the experiment with Lolium perenne (LOLPE) [3] it was 30%; with Avena fatua (AVEFA) [4] it was 50%; in experiment [5], 90%; in experiment [6], 10%. Further, the pest or weed control at 250 g/ha in the experiment on Lolium perenne (LOLPE) [7] is 30%; with Avena fatua (AVEFA) [8], 0%.
`CCc1ccc(-c2ccc(Cl)nc2)cc1C1=C(O)CCCC1=O` [Compound T42]: the pest or weed control at 250 g/ha in experiment [1] amounted to 100%; in experiment [2], 50%; with Lolium perenne (LOLPE) [3], 50%; with Avena fatua (AVEFA) [4], 20%; in experiment [5], 20%; in experiment [6], 0%. For the same molecule, the pest or weed control at 250 g/ha in the experiment on Lolium perenne (LOLPE) [7] and in the experiment with Avena fatua (AVEFA) [8] was 0% throughout.
With `CCc1ccc(-c2cc(Cl)c(Cl)cc2Cl)cc1C1=C(O)C(C)(C)CCC1=O` [Compound T20], the pest or weed control at 250 g/ha is 80% in experiment [1]; 0% in experiment [2]; 70% in the experiment with Lolium perenne (LOLPE) [3]; 40% with Avena fatua (AVEFA) [4]; 90% in experiment [5]; 0% in experiment [6]. Further, the values for the pest or weed control at 250 g/ha in the experiment on Lolium perenne (LOLPE) [7] and with Avena fatua (AVEFA) [8] were 50% and 0%, respectively.
For the molecule `CCc1ccc(-c2c(F)cc(Cl)cc2F)cc1C1=C(O)C(C)(C)CCC1=O` [Compound T13], the pest or weed control at 250 g/ha in experiment [1] stood at 100%; in experiment [2], 0%; in the experiment on Lolium perenne (LOLPE) [3] it was 50%; in the experiment with Avena fatua (AVEFA) [4] it was 0%; in experiment [5], 40%; in experiment [6], 0%. Further, the results for the pest or weed control at 250 g/ha in the experiment on Lolium perenne (LOLPE) [7] and with Avena fatua (AVEFA) [8] were 50% and 0%, respectively.

The values above are taken from patent US8741806B2, “Herbicides” (Syngenta Limited, priority 2009, dated 2014).
